Data as given in ChEMBL document CHEMBL1201862, “PubChem BioAssay data set” (2004).
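Results reflect a 48-hour exposure of cells in 96-well plates to compound at five concentrations. GI50 is the concentration that inhibits growth by half.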 Activity calls are given as the source filed them. Cut-off read from the data, not from the text of the source: active = GI50 up to about 1.1 µM and inactive = higher.

Columns and labels:
Test in all cases: growth of human tumour cells (NCI), 48 h
DU-145 = test system: DU-145
NCI-H23 = test system: NCI-H23
SK-MEL-5 = test system: SK-MEL-5
A498 = test system: A498
U-251 = test system: U-251
RXF 393 = test system: RXF 393
HOP-92 = test system: HOP-92
EKVX = test system: EKVX
NCI-H522 = test system: NCI-H522
HCT-15 = test system: HCT-15
M14 = test system: M14
Hs-578T = test system: Hs-578T
KM12 = test system: KM12
CAKI-1 = test system: CAKI-1
OVCAR-8 = test system: OVCAR-8
RPMI-8226 = test system: RPMI-8226
OVCAR-3 = test system: OVCAR-3
NCI-H460 = test system: NCI-H460
UACC-62 = test system: UACC-62
LOX IMVI = test system: LOX IMVI

| Compound | GI50 (DU-145) | GI50 (NCI-H23) | GI50 (SK-MEL-5) | GI50 (A498) | GI50 (U-251) | GI50 (RXF 393) | GI50 (HOP-92) | GI50 (EKVX) | GI50 (NCI-H522) | GI50 (HCT-15) | GI50 (M14) | GI50 (Hs-578T) | GI50 (KM12) | GI50 (CAKI-1) | GI50 (OVCAR-8) | GI50 (RPMI-8226) | GI50 (OVCAR-3) | GI50 (NCI-H460) | GI50 (UACC-62) | GI50 (LOX IMVI) |
| --- | --- | --- | --- | --- | --- | --- | --- | --- | --- | --- | --- | --- | --- | --- | --- | --- | --- | --- | --- | --- |
| O=C1CN(c2ccccc2)C(=O)CN1NCNN1CC(=O)N(c2ccccc2)CC1=O | > 100 µM (inactive) | 58.5 µM (inactive) | > 100 µM (inactive) | > 100 µM (inactive) | > 100 µM (inactive) | > 100 µM (inactive) | > 100 µM (inactive) | > 100 µM (inactive) | > 100 µM (inactive) | > 100 µM | > 100 µM (inactive) | > 100 µM (inactive) | > 100 µM (inactive) | > 100 µM (inactive) | > 100 µM (inactive) | > 100 µM (inactive) | > 100 µM (inactive) | > 100 µM (inactive) | > 100 µM (inactive) |  |
| C/C=C\C(CC(=O)NCCc1c[nH]c2ccccc12)CC(=O)OC (configuration not stated) | > 100 µM (inactive) | > 100 µM (inactive) | > 100 µM (inactive) | > 100 µM (inactive) | > 100 µM (inactive) | > 100 µM (inactive) | > 100 µM (inactive) | > 100 µM (inactive) | > 100 µM (inactive) | > 100 µM | > 100 µM (inactive) | > 100 µM (inactive) | > 100 µM (inactive) | > 100 µM (inactive) | > 100 µM (inactive) | > 100 µM (inactive) | > 100 µM (inactive) | > 100 µM (inactive) | > 100 µM (inactive) |  |
| COC(=O)/C(C#N)=C(/NCCN)Nc1ccccc1 | > 100 µM (inactive) | > 100 µM (inactive) | > 100 µM (inactive) | > 100 µM (inactive) | > 100 µM (inactive) | > 100 µM (inactive) | > 100 µM (inactive) | > 100 µM (inactive) | > 100 µM (inactive) | > 100 µM | > 100 µM (inactive) | > 100 µM (inactive) |  | > 100 µM (inactive) | > 100 µM (inactive) | > 100 µM (inactive) | > 100 µM (inactive) | > 100 µM (inactive) |  | > 100 µM (inactive) |
| Cc1c(-c2ccccc2)nn2cc(-c3ccccc3)nnc12 | 30.4 µM (inactive) | 31.9 µM (inactive) | 16.3 µM (inactive) | 56.6 µM (inactive) | 19.2 µM (inactive) | 18.2 µM (inactive) | 15.5 µM (inactive) |  | 15.5 µM (inactive) | 14.7 µM | 22.6 µM (inactive) | 25.2 µM (inactive) | 29 µM (inactive) | 45.7 µM (inactive) | 67.3 µM (inactive) | 35.5 µM (inactive) | 32.7 µM (inactive) | 16.9 µM (inactive) | 17.9 µM (inactive) | 19 µM (inactive) |
| CC(=O)Oc1ccc2oc(=O)cc(C)c2c1 | > 100 µM (inactive) | > 100 µM (inactive) | > 100 µM (inactive) | > 100 µM (inactive) | > 100 µM (inactive) | > 100 µM (inactive) | > 100 µM (inactive) | > 100 µM (inactive) | > 100 µM (inactive) |  | > 100 µM (inactive) | > 100 µM (inactive) | > 100 µM (inactive) | > 100 µM (inactive) | > 100 µM (inactive) | > 100 µM (inactive) | > 100 µM (inactive) | > 100 µM (inactive) |  | > 100 µM (inactive) |
| O=c1c(Cc2ccc(Cl)cc2)nnc2sc(-c3ccc(-c4ccc(F)c(Cl)c4)o3)nn12 | > 100 µM (inactive) | 44.5 µM (inactive) | > 100 µM (inactive) | 42.2 µM (inactive) | 99.5 µM (inactive) | > 100 µM (inactive) | 58.7 µM (inactive) | 24.5 µM (inactive) | 62.1 µM (inactive) | 34.9 µM | 64.6 µM (inactive) | > 100 µM (inactive) | 91.2 µM (inactive) | 43 µM (inactive) | 58.7 µM (inactive) | > 100 µM (inactive) |  | 55 µM (inactive) | 53.2 µM (inactive) | 70.5 µM (inactive) |
